What was measured:
[1] = target: T1, Alpha-1B adrenergic receptor (Homo sapiens, UniProt P35368); experiment: Evaluated for the ability to displace [125I]- HEAT from human cloned Alpha-1B adrenergic receptor stably expressed in LM cells.; format: cell-based
T1 sequence (P35368 whole entry): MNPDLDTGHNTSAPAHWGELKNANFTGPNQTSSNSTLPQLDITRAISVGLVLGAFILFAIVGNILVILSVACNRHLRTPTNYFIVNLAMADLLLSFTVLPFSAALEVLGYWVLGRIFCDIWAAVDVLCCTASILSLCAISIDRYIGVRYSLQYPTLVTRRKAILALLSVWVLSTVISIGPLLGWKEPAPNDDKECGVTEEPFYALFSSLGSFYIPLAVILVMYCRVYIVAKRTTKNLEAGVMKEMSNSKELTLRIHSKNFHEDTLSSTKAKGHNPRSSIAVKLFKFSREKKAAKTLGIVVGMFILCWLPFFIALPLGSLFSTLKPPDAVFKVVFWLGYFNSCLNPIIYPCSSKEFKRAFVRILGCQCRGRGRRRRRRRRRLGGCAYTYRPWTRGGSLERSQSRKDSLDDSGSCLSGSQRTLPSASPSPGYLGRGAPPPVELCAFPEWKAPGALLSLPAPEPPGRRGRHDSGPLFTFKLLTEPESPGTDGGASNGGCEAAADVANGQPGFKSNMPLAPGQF

[2] = target: T2, Alpha-1D adrenergic receptor (Homo sapiens, UniProt P25100); experiment: Evaluated for the ability to displace [125I]- HEAT from human cloned Alpha-1D adrenergic receptor stably expressed in HEK cells.; format: cell-based, HEK293
T2 sequence (P25100 whole entry): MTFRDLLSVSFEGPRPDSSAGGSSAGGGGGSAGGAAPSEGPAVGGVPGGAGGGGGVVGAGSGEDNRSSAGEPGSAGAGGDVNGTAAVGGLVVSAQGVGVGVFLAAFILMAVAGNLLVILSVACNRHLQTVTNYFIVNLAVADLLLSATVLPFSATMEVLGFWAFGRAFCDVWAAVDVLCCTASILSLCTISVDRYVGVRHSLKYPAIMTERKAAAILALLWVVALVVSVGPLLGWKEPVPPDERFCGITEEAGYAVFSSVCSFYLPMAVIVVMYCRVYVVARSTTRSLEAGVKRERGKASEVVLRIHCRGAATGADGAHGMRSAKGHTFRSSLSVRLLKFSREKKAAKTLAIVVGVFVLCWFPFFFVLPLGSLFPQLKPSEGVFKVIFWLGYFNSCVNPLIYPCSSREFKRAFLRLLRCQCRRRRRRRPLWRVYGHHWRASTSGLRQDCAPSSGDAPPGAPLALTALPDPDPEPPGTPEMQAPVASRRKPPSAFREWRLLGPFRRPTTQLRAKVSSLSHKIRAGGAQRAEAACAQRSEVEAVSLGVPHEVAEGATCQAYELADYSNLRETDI

[3] = target: T3, Alpha-1A adrenergic receptor (Homo sapiens, UniProt P35348); experiment: Evaluated for the ability to displace [125I]- HEAT from human cloned Alpha-1A adrenergic receptor stably expressed in CHO cells.; format: cell-based
T3 sequence (P35348 whole entry): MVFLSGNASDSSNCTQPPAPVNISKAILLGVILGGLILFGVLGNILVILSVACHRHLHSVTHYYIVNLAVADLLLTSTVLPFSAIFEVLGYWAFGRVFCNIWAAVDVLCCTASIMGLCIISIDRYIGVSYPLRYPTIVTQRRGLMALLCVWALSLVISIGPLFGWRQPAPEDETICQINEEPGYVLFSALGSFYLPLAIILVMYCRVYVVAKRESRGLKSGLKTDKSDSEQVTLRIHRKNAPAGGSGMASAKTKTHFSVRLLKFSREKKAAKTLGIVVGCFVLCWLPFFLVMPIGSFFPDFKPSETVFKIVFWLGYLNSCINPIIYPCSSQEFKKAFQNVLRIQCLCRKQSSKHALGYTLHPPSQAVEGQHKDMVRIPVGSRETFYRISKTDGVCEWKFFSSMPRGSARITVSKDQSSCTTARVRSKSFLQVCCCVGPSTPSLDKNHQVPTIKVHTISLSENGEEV

[4] = target: T2, Alpha-1D adrenergic receptor; experiment: Ability to displace [125I]- HEAT from human cloned Alpha-1D adrenergic receptor stably expressed in HEK cells.; format: cell-based, HEK293
Rattus norvegicus [5] = organism: Rattus norvegicus; experiment: Evaluated for the inhibition of A61603-induced prostate contraction in rat; format: functional, Prostate gland
[6] = t1/2 in rat; format: ADME, organism-based; conditions: in vivo
[7] = Bioavailability in rat; format: ADME, organism-based; conditions: in vivo
Rattus norvegicus [8] = organism: Rattus norvegicus; experiment: Duration of action with repeated challenges of A61603 agonist in rat; format: functional; note: test concentration or dose not given here
[9] = target: T3, Alpha-1A adrenergic receptor; experiment: Ability to displace [125I]- HEAT from human cloned Alpha-1A adrenergic receptor stably expressed in CHO cells.; format: cell-based
[10] = target: T1, Alpha-1B adrenergic receptor; experiment: Ability to displace [125I]- HEAT from human cloned Alpha-1B adrenergic receptor stably expressed in LM cells.; format: cell-based
Canis familiaris [11] = organism: Canis familiaris; experiment: Dose effecting a 20 mmHg change in diastolic blood pressure in dog.; format: functional, Canis lupus familiaris, Artery
Canis familiaris [12] = organism: Canis familiaris; experiment: Compound was evaluated for the inhibition of phenylephrine-induced contraction in dog.; format: functional, Canis lupus familiaris

Ki [1] [nM] | Ki [2] [nM] | Ki [3] [nM] | Ki [4] [nM] | half-life [6] [h] | bioavailability [7] [%] | Ki [9] [nM] | Ki [10] [nM] | SMILES | AD50 (Rattus norvegicus [5]) [µg/kg] | Duration (Rattus norvegicus [8]) [h] | DBP-20 (Canis familiaris [11]) [µg/kg] | AD50 (Canis familiaris [12]) [µg/kg]
200 | 270 | 4.2 | – | – | – | – | – | N#Cc1cc(F)ccc1C1CCN(CCCNC(=O)C2=C(C(F)(F)F)NC(=O)N[C@@H]2c2ccc(F)c(F)c2)CC1 | – | – | – | –
110 | – | 20 | 600 | – | – | – | – | CC1=C(C(=O)NCCCN2CCC(c3ccc(F)cc3)CC2)[C@H](c2ccc(F)c(F)c2)NC(=O)N1C | – | – | – | –
> 2000 | > 4000 | 0.6 | – | 0.4 | 0 | – | – | CC1=C(C(=O)NCCCN2CCC(C#N)(c3ccc(F)cc3C#N)CC2)[C@@H](c2ccc(F)c(F)c2)NC(=O)N1C | 5 | 1 | – | –
– | – | – | 200 | 2.3 | 17 | 0.18 | 20 | CC1=C(C(=O)NCCCN2CCC(c3ccc(F)cc3)CC2)[C@@H](c2ccc(F)c(F)c2)N(C)C(=O)N1C | 9 | 1 | – | –
> 2000 | > 5000 | 2.6 | – | 0.7 | 0 | – | – | CC1=C(C(=O)NCCCN2CCC(c3ccccn3)CC2)[C@@H](c2ccc(F)c(F)c2)NC(=O)N1 | 2.3 | 0.5 | – | –
24 | 68 | 0.17 | – | 1 | 0 | – | – | O=C1NC=C(C(=O)NCCCN2CCC(c3ccc(F)cc3)CC2)[C@@H](c2ccc(F)c(F)c2)N1 | 2.2 | 0.5 | >300 | 21
270 | 1200 | – | – | – | – | 19 | – | O=C1NC(C(F)(F)F)=C(C(=O)NCCCN2CCC(c3ccc(F)cc3)CC2)[C@@H](c2ccc(F)c(F)c2)N1 | – | – | – | –
26 | 62 | 0.07 | – | 2.9 | 0 | – | – | N#Cc1cc(F)ccc1C1CCN(CCCNC(=O)C2=CNC(=O)N[C@@H]2c2ccc(F)c(F)c2)CC1 | 1.8 | 2 | – | –
290 | 160 | 0.13 | – | 0.717 | 0 | – | – | N#Cc1ccccc1C1CCN(CCCNC(=O)C2=CNC(=O)N[C@@H]2c2ccc(F)c(F)c2)CC1 | 1.5 | 0.5 | – | –
72 | 250 | 0.3 | – | 0.25 | < 6 | – | – | CN1C=C(C(=O)NCCCN2CCC(C#N)(c3ccc(F)cc3C#N)CC2)[C@@H](c2ccc(F)c(F)c2)N(C)C1=O | 13 | 3 | – | –
– | – | – | 590 | 1.2 | < 6 | 0.18 | 120 | CC1=C(C(=O)NCCCN2CCC(c3ccc(F)cc3)CC2)[C@@H](c2ccc(F)c(F)c2)NC(=O)N1C | 20 | 2.5 | – | –
– | – | – | 410 | – | – | 11 | 85 | CC1=C(C(=O)NCCCN2CCC(c3ccc(F)cc3)CC2)[C@H](c2ccc(F)c(F)c2)N(C)C(=O)N1C | – | – | – | –
1850 | > 3000 | 2.5 | – | – | – | – | – | O=C1NC=C(C(=O)NCCCN2CCC(c3ccccn3)CC2)[C@@H](c2ccc(F)c(F)c2)N1 | – | – | – | –
1100 | 2200 | 0.39 | – | 0.75 | < 6 | – | – | CC1=C(C(=O)NCCCN2CCC(C#N)(c3ccc(F)cc3)CC2)[C@@H](c2ccc(F)c(F)c2)NC(=O)N1C | 21 | 1.5 | – | –
4.8 | 120 | 0.14 | – | – | – | – | – | CC1=C(C(=O)NCCCN2CCC(c3ccc(F)cc3)CC2)[C@@H](c2ccc(F)c(F)c2)N(C)C(=O)N1 | – | – | – | –
440 | 630 | 0.18 | – | < 1 | 0 | – | – | CN1C=C(C(=O)NCCCN2CCC(C#N)(c3ccc(F)cc3C#N)CC2)[C@@H](c2ccc(F)c(F)c2)NC1=O | 4 | 3.5 | – | –
700 | 220 | 20 | – | – | – | – | – | N#Cc1ccccc1C1CCN(CCCNC(=O)C2=C(C(F)(F)F)NC(=O)N[C@@H]2c2ccc(F)c(F)c2)CC1 | – | – | – | –
> 2000 | > 5000 | 500 | – | – | – | – | – | O=C1NC(C(F)(F)F)=C(C(=O)NCCCN2CCC(c3ccccn3)CC2)[C@@H](c2ccc(F)c(F)c2)N1 | – | – | – | –
140 | 810 | 0.17 | – | 2.33 | 0 | – | – | N#CC1(c2ccc(F)cc2)CCN(CCCNC(=O)C2=CNC(=O)N[C@@H]2c2ccc(F)c(F)c2)CC1 | 7 | 0.75 | – | –
25 | 170 | 0.75 | – | – | – | – | – | COC(=O)N1C(=O)N(C)C(C)=C(C(=O)NCCCN2CCC(c3ccc(F)cc3)CC2)[C@H]1c1ccc(F)c(F)c1 | – | – | – | –
– | – | – | 240 | 1.1 | < 6 | 0.12 | 53 | CN1C=C(C(=O)NCCCN2CCC(C#N)(c3ccc(F)cc3)CC2)[C@@H](c2ccc(F)c(F)c2)NC1=O | 14 | 4 | – | –
7.9 | 69 | 0.068 | – | 0.8 | 0 | – | – | CN1C=C(C(=O)NCCCN2CCC(c3ccc(F)cc3C#N)CC2)[C@@H](c2ccc(F)c(F)c2)NC1=O | 5 | 4 | – | –
35 | 260 | 0.14 | – | 2.92 | < 6 | – | – | COCC1=C(C(=O)NCCCN2CCC(c3ccc(F)cc3C#N)CC2)[C@@H](c2ccc(F)c(F)c2)NC(=O)N1 | 2.8 | 1.5 | – | –
33 | 230 | 2.2 | – | – | – | – | – | CC(=O)N1C(=O)N(C)C(C)=C(C(=O)NCCCN2CCC(c3ccc(F)cc3)CC2)[C@H]1c1ccc(F)c(F)c1 | – | – | – | –
970 | 2400 | 0.16 | – | 0.75 | 0 | – | – | N#Cc1ccccc1C1(C#N)CCN(CCCNC(=O)C2=CNC(=O)N[C@@H]2c2ccc(F)c(F)c2)CC1 | 3 | 1 | – | –
285 | 285 | 0.42 | – | 1.8 | < 6 | – | – | COCC1=C(C(=O)NCCCN2CCC(c3ccccc3C#N)CC2)[C@@H](c2ccc(F)c(F)c2)NC(=O)N1 | 7 | 0.6 | – | –
– | – | – | 710 | 1.2 | 8 | 2.3 | 320 | CN1C=C(C(=O)NCCCN2CCC(C#N)(c3ccc(F)cc3)CC2)[C@H](c2ccc(F)c(F)c2)NC1=O | 145 | – | – | –

SMILES | Ki [1] [nM] | Ki [2] [nM] | Ki [3] [nM] | Ki [4] [nM] | half-life [6] [h] | bioavailability [7] [%] | Ki [9] [nM] | Ki [10] [nM] | AD50 (Rattus norvegicus [5]) [µg/kg] | Duration (Rattus norvegicus [8]) [h] | DBP-20 (Canis familiaris [11]) [µg/kg] | AD50 (Canis familiaris [12]) [µg/kg]
O=C1NC=C(C(=O)NCCCN2CCC(O)(c3ccc(F)cc3)CC2)[C@@H](c2ccc(F)c(F)c2)N1 | 160 | 880 | 0.91 | – | 0.617 | 0 | – | – | 1.2 | 0.5 | – | –

From ChEMBL document CHEMBL1133772, “In vitro and in vivo evaluation of dihydropyrimidinone C-5 amides as potent and selective alpha(1A) receptor antagonists for the treatment of benign prostatic hyperplasia” (J Med Chem, 2000)
